Assay results as given in patent publication US20060063759A1, “Tricyclic steroid hormone nuclear receptor modulators” (priority 2002, published 2006).

Key:
[1] = biological target: T1, human MR (Homo sapiens, UniProt P08235); assay: Mineralocorticoid Receptor Binding Assay ([3H]-aldosterone); details: [3H]-aldosterone binding, human MR expressed in Sf9 cells; read-out: MR Ki
T1 construct: The full length human MR gene is cloned from a human kidney or human brain cDNA library; His tag from the pAcHLT vector (own knowledge); made in house; host or cells: Sf9 insect cells (baculovirus, pAcHLT transfer vector)
T1 sequence (P08235 1-984): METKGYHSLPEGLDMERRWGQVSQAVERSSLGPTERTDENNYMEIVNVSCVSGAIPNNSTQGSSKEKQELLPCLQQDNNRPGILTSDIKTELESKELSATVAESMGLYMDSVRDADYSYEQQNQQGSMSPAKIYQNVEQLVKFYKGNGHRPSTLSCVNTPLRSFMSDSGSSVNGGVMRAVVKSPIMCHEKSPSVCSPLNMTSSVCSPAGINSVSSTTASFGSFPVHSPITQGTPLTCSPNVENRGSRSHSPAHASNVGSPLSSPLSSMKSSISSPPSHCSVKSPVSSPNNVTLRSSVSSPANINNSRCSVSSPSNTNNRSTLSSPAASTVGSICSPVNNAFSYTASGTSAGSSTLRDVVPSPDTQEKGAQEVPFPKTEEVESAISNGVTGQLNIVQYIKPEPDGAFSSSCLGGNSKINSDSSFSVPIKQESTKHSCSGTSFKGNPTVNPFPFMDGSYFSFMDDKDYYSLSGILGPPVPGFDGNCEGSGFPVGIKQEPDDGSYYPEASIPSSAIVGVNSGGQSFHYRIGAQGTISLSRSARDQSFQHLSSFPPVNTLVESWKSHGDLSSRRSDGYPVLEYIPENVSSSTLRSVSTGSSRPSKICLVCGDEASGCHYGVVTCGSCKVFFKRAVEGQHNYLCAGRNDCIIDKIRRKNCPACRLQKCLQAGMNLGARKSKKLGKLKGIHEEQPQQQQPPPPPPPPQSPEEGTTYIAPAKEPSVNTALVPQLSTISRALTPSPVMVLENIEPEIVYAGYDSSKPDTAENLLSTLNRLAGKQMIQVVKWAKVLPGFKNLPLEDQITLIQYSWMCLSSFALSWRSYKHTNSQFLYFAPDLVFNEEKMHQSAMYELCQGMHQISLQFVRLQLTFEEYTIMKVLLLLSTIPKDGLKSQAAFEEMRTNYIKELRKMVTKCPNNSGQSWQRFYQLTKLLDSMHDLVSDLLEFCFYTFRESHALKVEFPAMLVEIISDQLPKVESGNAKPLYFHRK
Outline: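 Receptor source: freeze-thaw lysate of baculovirus-infected Sf9 cells carrying full-length human MR, 20-25 μg protein. Incubation ~16 h at 4 °C with shaking, pH 7.5 buffer containing 30 mM sodium molybdate and 10% glycerol.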

[2] = biological target: T2, glucocorticoid receptor (Homo sapiens, UniProt P04150); assay: Glucocorticoid Receptor Binding Assay ([3H]-dexamethasone, A549 cell extract); details: [3H]-dexamethasone binding, read-out: GR Ki
T2 construct: containing 50-200 ug of A549 cell extract and 1.86 nM [^3H]-dexamethasone; host or cells: A549 human lung epithelial cells (sonicated cell extract)
T2 sequence (P04150 1-777): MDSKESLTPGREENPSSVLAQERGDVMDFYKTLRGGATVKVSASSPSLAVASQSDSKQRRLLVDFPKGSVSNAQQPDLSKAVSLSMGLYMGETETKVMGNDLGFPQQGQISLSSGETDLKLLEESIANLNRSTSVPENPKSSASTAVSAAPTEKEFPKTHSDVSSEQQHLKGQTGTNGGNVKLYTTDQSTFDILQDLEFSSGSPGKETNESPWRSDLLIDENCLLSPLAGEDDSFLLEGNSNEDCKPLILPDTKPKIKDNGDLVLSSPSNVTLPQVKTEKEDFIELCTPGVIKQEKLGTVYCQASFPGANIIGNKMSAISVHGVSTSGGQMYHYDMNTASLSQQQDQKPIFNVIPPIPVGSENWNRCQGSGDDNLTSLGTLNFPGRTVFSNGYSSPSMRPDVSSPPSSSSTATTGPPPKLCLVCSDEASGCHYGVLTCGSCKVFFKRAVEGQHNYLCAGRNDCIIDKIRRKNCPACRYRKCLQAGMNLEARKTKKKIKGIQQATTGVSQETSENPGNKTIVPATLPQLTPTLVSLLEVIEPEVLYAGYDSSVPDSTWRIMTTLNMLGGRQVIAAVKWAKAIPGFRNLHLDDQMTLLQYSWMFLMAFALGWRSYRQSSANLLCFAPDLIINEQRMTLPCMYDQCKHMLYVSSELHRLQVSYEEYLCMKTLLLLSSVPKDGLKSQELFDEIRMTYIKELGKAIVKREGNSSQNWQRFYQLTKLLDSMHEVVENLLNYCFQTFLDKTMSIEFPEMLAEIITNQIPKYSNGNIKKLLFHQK
Outline: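 Displacement of [3H]-dexamethasone (1.86 nM) from glucocorticoid receptor in sonicated A549 lung epithelial cell extracts, 16 h at 4 °C, pH 7.2 molybdate-containing buffer. Bound radioactivity was scintillation-counted after charcoal/dextran stripping of free ligand.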

| Ki [1] | Ki [2] | melting point | Compound |
| --- | --- | --- | --- |
| < 500 nM | < 500 nM | 198.9 °C | O=Cc1ccccc1C=C1c2ccccc2CCc2ccccc21 [Example 69, 2-(10,11-Dihydro-dibenzo[a,d]cyclohepten-5-ylidenemethyl)-benzaldehyde] |
| < 500 nM | < 500 nM | 109.6 °C | COc1ccc2c(c1)CCc1cc(OC)ccc1C2=Cc1cccc(NS(C)(=O)=O)c1 [Example 191, N-[3-(2,8-Dimethoxy-10,11-dihydro-dibenzo[a,d]cyclohepten-5-ylidenemethyl)-phenyl]-methanesulfonamide] |
| < 500 nM | < 1000 nM | 143.2 °C | Oc1cccc(C=C2c3ccccc3CCc3ccccc32)c1F [Example 153, 3-(10,11-Dihydro-dibenzo[a,d]cyclohepten-5-ylidenemethyl)-2-fluoro-phenol] |
| < 500 nM | < 500 nM | 182.4 °C | CS(=O)(=O)Nc1cccc(C=C2c3ccc(Cl)cc3CCc3cc(Cl)ccc32)c1 [Example 182, N-[3-(2,8-Dichloro-10,11-dihydro-dibenzo[a,d]cyclohepten-5-ylidenemethyl)-phenyl]-methanesulfonamide] |
| < 500 nM | < 500 nM | 13.3 °C | FC(F)c1ccccc1C=C1c2ccccc2CCc2ccccc21 [Example 71, 5-(2-Difluoromethyl-benzylidene)-10,11-dihydro-5H-dibenzo[a,d]cycloheptene] |
| < 500 nM | < 1000 nM | 129.5 °C | Oc1cccc(C=C2c3cccc(F)c3CCc3c(F)cccc32)c1 [Example 202, 3-(1,9-Difluoro-10,11-dihydro-dibenzo[a,d]cyclohepten-5-ylidenemethyl)-phenol] |
| < 500 nM | < 1000 nM | 86.7 °C | O=Cc1cccc(C=C2c3ccccc3CCc3ccccc32)c1 [Example 70, 3-(10,11-Dihydro-dibenzo[a,d]cyclohepten-5-ylidenemethyl)-benzaldehyde] |
| < 500 nM | < 500 nM | 145.2 °C | Nc1ccccc1C=C1c2ccccc2CCc2ccccc21 [Example 87, 2-(10,11-Dihydro-dibenzo[a,d]cyclohepten-5-ylidenemethyl)-phenylamine] |
| < 500 nM | < 1000 nM | > 250 °C | Nc1ccc(C=C2c3ccccc3CCc3ccccc32)cc1 [Example 88, 4-(10,11-Dihydro-dibenzo[a,d]cyclohepten-5-ylidenemethyl)-phenylamine] |
| < 500 nM | < 500 nM | 76.6 °C | Oc1cccc(CC2c3ccccc3CCc3ccccc32)c1 [Example 126, 3-(10,11-Dihydro-5H-dibenzo[a,d]cyclohepten-5-ylmethyl)-phenol] |
| < 500 nM | < 10000 nM | 199 to 201 °C | CS(=O)(=O)Nc1cccc(C=C2c3ccccc3C3C(c4ccccc42)C3(Cl)Cl)c1 (centres unmarked) [Example 259, N-[3-(8,8-Dichloro-4-ylidenemethyl-2,3,5,6-dibenzobicyclo[5.1.0]octane)-phenyl]-methanesulfonamide] |
|  |  | 184.6 °C | Cc1nc2c(o1)CCc1ccccc1/C2=C/c1cccc(NS(C)(=O)=O)c1 [Example 247, N-[3-(2-Methyl-9,10-dihydro-1-oxa-3-aza-benzo[f]azulen-4-ylidenemethyl)-phenyl]-methanesulfonamide] |

Continued, compound first:

| Compound | Ki [1] | Ki [2] | melting point |
| --- | --- | --- | --- |
| CNS(=O)(=O)c1cc(C)ccc1C=C1c2ccccc2CCc2ccccc21 [Example 2, 2-(10,11-Dihydro-dibenzo[a,d]cyclohepten-5-ylidenemethyl)-5,N-dimethyl-benzenesulfonamide] | < 500 nM | < 500 nM | 174.9 °C |
| CNS(=O)(=O)c1ccccc1C=C1c2ccccc2CCc2ccccc21 [Example 4, 2-(10,11-Dihydro-dibenzo[a,d]cyclohepten-5-ylidenemethyl)-N-methyl-benzenesulfonamide] | < 500 nM | < 1000 nM | 149 °C |
| FC(F)Oc1cccc(C=C2c3ccccc3CCc3ccccc32)c1 [Example 65, 5-(3-Difluoromethoxy-benzylidene)-10,11-dihydro-5H-dibenzo[a,d]cycloheptene] | < 500 nM | < 10000 nM | 91.3 °C |
| CS(=O)(=O)Nc1cc(C=C2c3ccccc3CCc3ccccc32)ccc1O [Example 64, N-[5-(10,11-Dihydro-dibenzo[a,d]cyclohepten-5-ylidenemethyl)-2-hydroxy-phenyl]-methanesulfonamide] | < 500 nM | < 500 nM | 122.6 °C |
| COc1ccccc1C=C1c2ccccc2CCc2ccccc21 [Example 31, 5-(2-Methoxy-benzylidene)-10,11-dihydro-5H-dibenzo-[a,d]cycloheptene] | < 500 nM | < 10000 nM | 129.3 °C |
| Cc1cc(S(=O)(=O)N2CCOCC2)c(C=C2c3ccccc3CCc3ccccc32)cc1Cl [Example 12, 4-[4-Chloro-2-(10,11-dihydro-dibenzo[a,d]cyclohepten-5-ylidenemethyl)-5-methyl-benzenesulfonyl]-morpholine] |  |  | 194.7 °C |
| FC(F)Oc1ccc(C=C2c3ccccc3CCc3ccccc32)cc1 [Example 67, 5-(4-Difluoromethoxy-benzylidene)-10,11-dihydro-5H-dibenzo[a,d]cycloheptene] |  |  | 65.8 °C |
| FC(F)Oc1ccccc1C=C1c2ccccc2CCc2ccccc21 [Example 66, 5-(2-Difluoromethoxy-benzylidene)-10,11-dihydro-5H-dibenzo[a,d]cycloheptene] |  |  | 81.1 °C |
| Cc1ccc(C=C2c3ccccc3CCc3ccccc32)c(S(=O)(=O)NCC(F)(F)F)c1 [Example 23, 2-(10,11-Dihydro-dibenzo[a,d]cyclohepten-5-ylidenemethyl)-5-methyl-N-(2,2,2-trifluoro-ethyl)-benzenesulfonamide] |  |  | 100.7 °C |
| Cc1ccc(C=C2c3ccccc3CCc3ccccc32)c(S(=O)(=O)NCc2ccccc2)c1 [Example 15, N-Benzyl-2-(10,11-dihydro-dibenzo[a,d]cyclohepten-5-ylidenemethyl)-5-methyl-benzenesulfonamide] |  |  | 138.3 °C |
| CCCNS(=O)(=O)c1cc(C)ccc1C=C1c2ccccc2CCc2ccccc21 [Example 20, 2-(10,11-Dihydro-dibenzo[a,d]cyclohepten-5-ylidenemethyl)-5-methyl-N-propyl-benzenesulfonamide] |  |  | 149.8 °C |
| Brc1cccc(C=C2c3ccccc3CCc3ccccc32)c1 [Example 28, 5-(3-Bromo-benzylidene)-10,11-dihydro-5H-dibenzo-[a,d]cycloheptene] |  |  | 104.7 °C |
